Experiments:
Assay type in all cases: functional
LOX IMVI = assay: Growth inhibition of human LOXIMVI cells assessed as cell growth at 1 uM incubated for 48 hrs by sulforhodamine B assay relative to control; details: read-out: Activity
KM12 = assay: Growth inhibition of human KM12 cells assessed as cell growth at 0.1 uM incubated for 48 hrs by sulforhodamine B assay relative to control; details: KM12, 48 h, read-out: Activity
NCI/ADR-RES = assay: Growth inhibition of human NCI-ADR-RES cells assessed as cell growth at 100 uM incubated for 48 hrs by sulforhodamine B assay relative to control; details: read-out: Activity
MOLT-4 [1] = assay: Growth inhibition of human MOLT4 cells assessed as cell growth at 0.01 uM incubated for 48 hrs by sulforhodamine B assay relative to control; details: MOLT-4, 48 h, read-out: Activity
NCI-H226 = assay: Growth inhibition of human NCI-H226 cells assessed as cell growth at 100 uM incubated for 48 hrs by sulforhodamine B assay relative to control; details: NCI-H226, 48 h, read-out: Activity
MOLT-4 [2] = assay: Growth inhibition of human MOLT4 cells assessed as cell growth at 100 uM incubated for 48 hrs by sulforhodamine B assay relative to control; details: MOLT-4, 48 h, read-out: Activity
SK-OV-3 = assay: Growth inhibition of human SKOV3 cells assessed as cell growth at 1 uM incubated for 48 hrs by sulforhodamine B assay relative to control; details: SK-OV-3, 48 h, read-out: Activity
HT-29 = assay: Growth inhibition of human HT-29 cells assessed as cell growth at 100 uM incubated for 48 hrs by sulforhodamine B assay relative to control; details: HT-29, 48 h, read-out: Activity
OVCAR-5 = assay: Growth inhibition of human OVCAR5 cells assessed as cell growth at 1 uM incubated for 48 hrs by sulforhodamine B assay relative to control; details: OVCAR-5, 48 h, read-out: Activity
SK-MEL-5 = assay: Growth inhibition of human SK-MEL-5 cells assessed as cell growth at 100 uM incubated for 48 hrs by sulforhodamine B assay relative to control; details: SK-MEL-5, 48 h, read-out: Activity
HOP-92 [3] = assay: Growth inhibition of human HOP92 cells assessed as cell growth at 0.1 uM incubated for 48 hrs by sulforhodamine B assay relative to control; details: HOP-92, 48 h, read-out: Activity
SNB-75 [4] = assay: Growth inhibition of human SNB75 cells incubated for 48 hrs by sulforhodamine B assay; details: SNB-75, 48 h
SNB-19 = assay: Growth inhibition of human SNB19 cells assessed as cell growth at 1 uM incubated for 48 hrs by sulforhodamine B assay relative to control; details: SNB-19, 48 h, read-out: Activity
TK-10 = assay: Growth inhibition of human TK10 cells incubated for 48 hrs by sulforhodamine B assay; details: TK-10, 48 h
BT-549 [5] = assay: Growth inhibition of human BT549 cells assessed as cell growth at 0.1 uM incubated for 48 hrs by sulforhodamine B assay relative to control; details: BT-549, 48 h, read-out: Activity
DU-145 = assay: Growth inhibition of human DU145 cells incubated for 48 hrs by sulforhodamine B assay; details: DU-145, 48 h; for TGI: read-out: pTGI (converted)
UACC-257 [6] = assay: Growth inhibition of human UACC257 cells incubated for 48 hrs by sulforhodamine B assay; details: UACC-257, 48 h
U-251 [7] = assay: Growth inhibition of human U251 cells incubated for 48 hrs by sulforhodamine B assay; details: U-251, 48 h
SK-MEL-28 = assay: Growth inhibition of human SK-MEL-28 cells assessed as cell growth at 1 uM incubated for 48 hrs by sulforhodamine B assay relative to control; details: SK-MEL-28, 48 h, read-out: Activity
HOP-92 [8] = assay: Growth inhibition of human HOP92 cells assessed as cell growth at 1 uM incubated for 48 hrs by sulforhodamine B assay relative to control; details: HOP-92, 48 h, read-out: Activity
U-251 [9] = assay: Growth inhibition of human U251 cells assessed as cell growth at 0.1 uM incubated for 48 hrs by sulforhodamine B assay relative to control; details: U-251, 48 h, read-out: Activity
RXF 393 = assay: Growth inhibition of human RXF393 cells assessed as cell growth at 0.01 uM incubated for 48 hrs by sulforhodamine B assay relative to control; details: RXF 393, 48 h, read-out: Activity
HOP-92 [10] = assay: Growth inhibition of human HOP92 cells incubated for 48 hrs by sulforhodamine B assay; details: HOP-92, 48 h
CCRF-CEM = assay: Growth inhibition of human CCRF-CEM cells assessed as cell growth at 0.1 uM incubated for 48 hrs by sulforhodamine B assay relative to control; details: read-out: Activity
SF-539 = assay: Growth inhibition of human SF539 cells assessed as cell growth at 100 uM incubated for 48 hrs by sulforhodamine B assay relative to control; details: SF-539, 48 h, read-out: Activity
SNB-75 [11] = assay: Growth inhibition of human SNB75 cells assessed as cell growth at 0.01 uM incubated for 48 hrs by sulforhodamine B assay relative to control; details: SNB-75, 48 h, read-out: Activity
BT-549 [12] = assay: Growth inhibition of human BT549 cells assessed as cell growth at 0.01 uM incubated for 48 hrs by sulforhodamine B assay relative to control; details: BT-549, 48 h, read-out: Activity
COLO 205 = assay: Growth inhibition of human COLO205 cells incubated for 48 hrs by sulforhodamine B assay; details: COLO 205, 48 h
HCT-116 = assay: Growth inhibition of human HCT116 cells assessed as cell growth at 0.01 uM incubated for 48 hrs by sulforhodamine B assay relative to control; details: HCT-116, 48 h, read-out: Activity
UACC-257 [13] = assay: Growth inhibition of human UACC257 cells assessed as cell growth at 1 uM incubated for 48 hrs by sulforhodamine B assay relative to control; details: UACC-257, 48 h, read-out: Activity
[14] = read-out: LC50 (the source's name)
[15] = read-out: pLC50 (the source's name) (converted)

c1ccc2c3c([nH]c2c1)C(c1ccc(C2NCCc4c2[nH]c2ccccc42)cc1)NCC3 (racemic)
growth at 1 µM (LOX IMVI): 48%
growth at 0.1 µM (KM12): 95%
growth at 100 µM (NCI/ADR-RES): -30%
growth at 0.01 µM (MOLT-4 [1]): 110%
growth at 100 µM (NCI-H226): 60%
growth at 100 µM (MOLT-4 [2]): 76%
growth at 1 µM (SK-OV-3): 90%
growth at 100 µM (HT-29): 90%
growth at 1 µM (OVCAR-5): 85%
growth at 100 µM (SK-MEL-5): 93%
growth at 0.1 µM (HOP-92 [3]): 87%
CC50 (SNB-75 [4]; [14]): 4.59 µM
GI50 (SNB-75 [4]; read-out: pGI50 (converted)): 0.692 µM
CC50 (SNB-75 [4]; [15]): 4.57 µM
TGI (SNB-75 [4]; read-out: pTGI (converted)): 2.09 µM
growth at 1 µM (SNB-19): 88%
GI50 (TK-10; read-out: GI50): 1.98 µM
CC50 (TK-10; [14]): 8.44 µM
TGI (TK-10; read-out: TGI): 4.09 µM
GI50 (TK-10; read-out: pGI50 (converted)): 2 µM
CC50 (TK-10; [15]): 8.51 µM
TGI (TK-10; read-out: pTGI (converted)): 4.07 µM
growth at 0.1 µM (BT-549 [5]): 95%
CC50 (DU-145; [14]): 5.16 µM
GI50 (DU-145; read-out: pGI50 (converted)): 0.741 µM
CC50 (DU-145; [15]): 5.13 µM
TGI (DU-145): 2.14 µM
GI50 (UACC-257 [6]; read-out: GI50): 1.19 µM
CC50 (UACC-257 [6]; [14]): 6.5 µM
TGI (UACC-257 [6]; read-out: TGI): 3.52 µM
GI50 (UACC-257 [6]; read-out: pGI50 (converted)): 1.91 µM
CC50 (UACC-257 [6]; [15]): 6.46 µM
TGI (UACC-257 [6]; read-out: pTGI (converted)): 3.55 µM
GI50 (U-251 [7]; read-out: pGI50 (converted)): 0.324 µM
TGI (U-251 [7]; read-out: pTGI (converted)): 1.1 µM
growth at 1 µM (SK-MEL-28): 91%
growth at 1 µM (HOP-92 [8]): 44%
growth at 0.1 µM (U-251 [9]): 97%
growth at 0.01 µM (RXF 393): 101%
CC50 (HOP-92 [10]; [14]): 9.59 µM
GI50 (HOP-92 [10]; read-out: pGI50 (converted)): 0.724 µM
CC50 (HOP-92 [10]; [15]): 9.55 µM
TGI (HOP-92 [10]; read-out: pTGI (converted)): 2.88 µM
growth at 0.1 µM (CCRF-CEM): 104%
growth at 100 µM (SF-539): 97%
growth at 0.01 µM (SNB-75 [11]): 78%
growth at 0.01 µM (BT-549 [12]): 87%
GI50 (COLO 205; read-out: GI50): 2.04 µM
CC50 (COLO 205; [14]): 1.2 µM
TGI (COLO 205; read-out: TGI): 4.59 µM
GI50 (COLO 205; read-out: pGI50 (converted)): 0.204 µM
CC50 (COLO 205; [15]): 1.2 µM
TGI (COLO 205; read-out: pTGI (converted)): 0.457 µM
growth at 0.01 µM (HCT-116): 91%
growth at 1 µM (UACC-257 [13]): 103%

c1ccc2[nH]c(-c3ccc(-c4nccc5c4[nH]c4ccccc45)cc3)nc2c1
growth at 1 µM (LOX IMVI): 81%
growth at 0.1 µM (KM12): 96%
growth at 100 µM (NCI/ADR-RES): 45%
growth at 0.01 µM (MOLT-4 [1]): 96%
growth at 100 µM (NCI-H226): 50%
growth at 100 µM (MOLT-4 [2]): 54%
growth at 1 µM (SK-OV-3): 100%
growth at 100 µM (HT-29): 64%
growth at 1 µM (OVCAR-5): 96%
growth at 100 µM (SK-MEL-5): 86%
growth at 0.1 µM (HOP-92 [3]): 93%
GI50 (SNB-75 [4]; read-out: GI50): 1.57 µM
CC50 (SNB-75 [4]; [14]): 1.19 µM
TGI (SNB-75 [4]; read-out: TGI): 4.08 µM
GI50 (SNB-75 [4]; read-out: pGI50 (converted)): 1.58 µM
CC50 (SNB-75 [4]; [15]): 12 µM
TGI (SNB-75 [4]; read-out: pTGI (converted)): 4.07 µM
growth at 1 µM (SNB-19): 88%
GI50 (TK-10; read-out: GI50): 2.07 µM
CC50 (TK-10; [14]): 1.08 µM
TGI (TK-10; read-out: TGI): 4.59 µM
GI50 (TK-10; read-out: pGI50 (converted)): 2.09 µM
CC50 (TK-10; [15]): 10.7 µM
TGI (TK-10; read-out: pTGI (converted)): 4.57 µM
growth at 0.1 µM (BT-549 [5]): 92%
GI50 (DU-145; read-out: GI50): 4.02 µM
CC50 (DU-145; [14]): 5.74 µM
GI50 (DU-145; read-out: pGI50 (converted)): 3.98 µM
CC50 (DU-145; [15]): 57.5 µM
TGI (DU-145): 16.2 µM
GI50 (UACC-257 [6]; read-out: GI50): 1.83 µM
CC50 (UACC-257 [6]; [14]): 6.73 µM
TGI (UACC-257 [6]; read-out: TGI): 3.5 µM
CC50 (UACC-257 [6]; [15]): 6.76 µM
GI50 (U-251 [7]; read-out: GI50): 2.74 µM
LC50 (U-251 [7]; read-out: LC50): 4.05 µM
TGI (U-251 [7]; read-out: TGI): 7.83 µM
GI50 (U-251 [7]; read-out: pGI50 (converted)): 2.75 µM
LC50 (U-251 [7]; read-out: pLC50 (converted)): 40.7 µM
TGI (U-251 [7]; read-out: pTGI (converted)): 7.76 µM
growth at 1 µM (SK-MEL-28): 102%
growth at 1 µM (HOP-92 [8]): 85%
growth at 0.1 µM (U-251 [9]): 104%
growth at 0.01 µM (RXF 393): 106%
GI50 (HOP-92 [10]; read-out: GI50): 2.06 µM
CC50 (HOP-92 [10]; [14]): 2.98 µM
TGI (HOP-92 [10]; read-out: TGI): 5.79 µM
GI50 (HOP-92 [10]; read-out: pGI50 (converted)): 2.04 µM
CC50 (HOP-92 [10]; [15]): 29.5 µM
TGI (HOP-92 [10]; read-out: pTGI (converted)): 5.75 µM
growth at 0.1 µM (CCRF-CEM): 102%
growth at 100 µM (SF-539): 70%
growth at 0.01 µM (SNB-75 [11]): 81%
growth at 0.01 µM (BT-549 [12]): 91%
GI50 (COLO 205; read-out: GI50): 2.32 µM
CC50 (COLO 205; [14]): 4.35 µM
TGI (COLO 205; read-out: TGI): 6.22 µM
GI50 (COLO 205; read-out: pGI50 (converted)): 2.34 µM
CC50 (COLO 205; [15]): 43.7 µM
TGI (COLO 205; read-out: pTGI (converted)): 6.17 µM
growth at 0.01 µM (HCT-116): 92%
growth at 1 µM (UACC-257 [13]): 96%

From ChEMBL document CHEMBL4004838, “Design and synthesis of novel phenyl -1, 4-beta-carboline-hybrid molecules as potential anticancer agents” (Eur J Med Chem, 2017)
